Data: patent US20100204135A1, “USE OF LVV-HEMORPHIN-6 AND OPTIONALLY AF12198 AS THERAPEUTIC AGENT(S)” (priority 2007, published 2010)
Where no end group is shown, it is not given here.

Test system: drug-resistant Mycobacterium tuberculosis
Experiment: Mycobacterium tuberculosis assay
Type: cell-based

Substance | inhibition of the growth of Mycobacterium tuberculosis [%]
Leu-Val-Val-Tyr-Pro-Trp-Thr-Gln-Arg-OH (LVVYPWTQR-OH) [Peptide 1] | 100
Phe-Glu-Trp-Thr-Pro-Gly-Tyr-Trp-Gln-Pro-Tyr-Ala-Leu-Pro-Leu-OH (FEWTPGYWQPYALPL-OH) [Peptide 2] | 100
